Measured values taken from publication PMC5317004 (Scientific Reports, 2017).

Tests used:
chimeric α7-GluClβR [1] = target: chimeric α7-GluClβR (Gallus gallus / Caenorhabditis elegans, UniProt P22770, M226I/T225I); assay: ACh dose-response, whole-cell patch clamp in CHO cells expressing the chimeric receptor; type: cell-based, chick nAChR α7 / C. elegans GluClβ; settings: −60 mV
chimeric α7-GluClβR [2] = assay: IVM added after activation by ACh: kinetics and extent of current decline (whole-cell patch clamp); type: cell-based, chick nAChR α7 / C. elegans GluClβ
Method: Following a further wash (for a minute), the same cell was challenged again with a 5-μM-IVM solution (in 0.01% DMSO; red bar, arrow and trace). Recordings were performed at −60 mV. (B) Time constant of current decline (τd). Values of τd were determined by exponential fits to the declining phase of the currents using Eq. 3. […] Error bars correspond to SEM of N = 6 and N = 5 cells for recordings at −60 mV and −20 mV, respectively. Paired, two-tailed Student’s t-tests indicate that for not significant (“ns”) P > 0.3, and ** 0.001 < P < 0.005.
Figure 8 The inhibition of ACh-elicited currents by addition of IVM is irreversible. […] (B) Representative currents for the same experiment as in A, but with the exception of IVM (0.5 μM) addition after the ACh-elicited current reached to its peak (IP1). Inset, magnification of the indicated segment of the current trace. In both panels A and B, black bars above the current traces indicate ACh or IVM applications. […] Error bars correspond to SEM. Unpaired, two-tailed Student’s t-tests indicate *** P < 0.0001.
The declining phase of the currents was fitted with an exponential time course to give the time constant of current decline by using equation 3, […]
I is the current, IP is the peak of the current, IS is the steady state current, t is the time, and τ is the time constant of current decline. […]
Supplementary Materials and Methods
The structural mo del of the chi meric α7-GluClβR was built based on th e methodologies published previously1,2, and the sequence of the chimeric subunit is presented in […]
DNA construct and preparation of cells for electrophysiological experiments The cDNA encoding the α7-GluClβ chimeric subunit was generated as described previously3, and was cloned into a pcDNA3.1 vector.
Chinese hamster ovary cells (CHO-K1, ATCC via Biological Industries Israel, Beit Haemek Ltd.) were cultured as performed previously2 in Dulbecco 's Modified E agle Med iu m (DMEM) containing 10% fetal calf serum (Biological Industries Israel Beit Haemek Ltd.), 2 mM glutamax, 100 Units/ml penicillin G and 100 μg/ml streptomycin, and grown in 5% CO2 at 37°C under 90-95% hu midity . CHO cells were seeded on glass coverslips (13-mm diameter) placed in a 24-multiwell plate. For the expression of the α7-GluClβR, cells were transiently transfected with the pcDNA3.1 plasmid containing the receptor’s ORF (200-600 ng per well) using transit-LT1 transfection reagent (Mirus, USA), according to the manufacturer’s protocol. pIRES-CD8 plas mid (200 ng per well) was also added to enable visualization of the ex pressing cells by beads coated with anti-CD8 antibodies (Invitrogen). For the expression of GluClβ ho mo mers, we used the pcDNA3.1 plas mid containing the GluClβ-subunit ORF (600-1000 ng per well), pIRES-CD8 plas mid (200 ng per well) and th e X-tremeGENE HP DNA Transfection Reagent (Roche Life Science). Recordings were performed 48-72 hours following transfection.
Whole-cell patch clamp recordings
Recordings were performed in the aforementioned CHO cells, as previously described1,2. Whole-cell patch clamp experiments were performed with normal external solution (NES) contained (in millimolar): 140 NaCl, 2.8 KCl, 2 CaCl2, 2 MgCl2, 10 glucose and 10 HEPES, adjusted to pH 7.35 with NaOH (310 mOsM). The pipette solution contained […]
(in millimolar): 130 KCl, 4 MgCl2, 4 Na2ATP, 1 EGTA and 10 HEPES, adjusted to pH 7.35 with KOH (290 mOsM). The osmolarity of these solutions was maintained by adding sucrose.
The electrode resistance was 6-10 MΩ when filled with the pipette solution. External solutions were applied onto the cell by using the VC-77SP fast-step system (Warner Instruments, CT, USA) combined with N2 pressure of 3-4 psi to produce laminar flow of the external solution onto the patched cell. All measurements were performed at 25 °C. The currents w ere measured with an Axopatch 200B patch-clamp amplifier (Molecular Devices, Sunnyvale, CA) and a Digidata 1440A interface (Molecular Devices). […]

homomeric GluClβR [3] = system: T1, homomeric GluClβR; assay: Effect of IVM on Glu-elicited currents of homomeric GluClβ receptors in CHO cells (whole-cell patch clamp); type: cell-based, C. elegans; settings: 100 mM Glu, four cells, mean ± SEM
T1 construct: homomeric receptors assembled from the full-length C. elegans GluClβ subunit; expressed in transfected cells; host or cells: CHO-K1 cells, transient transfection, pcDNA3.1
Method: Figure 9 Effect of IVM on homomeric GluClβ receptors. (A) Representative current traces obtained by the indicated application protocol. Glu (100 mM) was applied for either 350 ms to obtain peak IP0 at −60 mV, or 600 ms to obtain peaks IP1, IP2 and IP3 at +60 mV. Note that the responses at both membrane voltages, −60 and +60 mV, start to desensitize appreciably before the end of Glu application. IVM (2 μM) was applied for 10 seconds. Asterisk indicates a 25-sec-long wash between the second and third Glu applications. (B) Current-voltage (I/V) relations obtained in a different cell than in A upon the application of Glu (100 mM) over a voltage ramp lasting 200 ms. […] Current ratios were extracted from experiments performed as shown in (A). Mean ± SEM of four cells are presented. Paired, two-tailed Student’s t-tests indicate that **0.001 < P < 0.01 and ***P < 0.0002.
Supplementary Information
Trapping of ivermectin by a pentameric ligand-gated ion channel upon open-to-cl ose d i someri zati on N. Degani-Katzav, M. Klein, M. Har-Even, R. Gortler, R. Tobi and Y. Paas*
Supplementary Materials and Methods […]
The electrode resistance was 6-10 MΩ when filled with the pipette solution. […] The currents w ere measured with an Axopatch 200B patch-clamp amplifier (Molecular Devices, Sunnyvale, CA) and a Digidata 1440A interface (Molecular Devices). […]

homomeric GluClβR [4] = system: homomeric GluClβR; set-up: method as in PMID 7935817; settings: Xenopus oocytes; read-out: Glu EC50; cited from earlier work

chimeric α7-GluClβR (Gallus gallus / Caenorhabditis elegans, UniProt P22770, M226I/T225I), sequence (P22770 24-230 T225I/M226I): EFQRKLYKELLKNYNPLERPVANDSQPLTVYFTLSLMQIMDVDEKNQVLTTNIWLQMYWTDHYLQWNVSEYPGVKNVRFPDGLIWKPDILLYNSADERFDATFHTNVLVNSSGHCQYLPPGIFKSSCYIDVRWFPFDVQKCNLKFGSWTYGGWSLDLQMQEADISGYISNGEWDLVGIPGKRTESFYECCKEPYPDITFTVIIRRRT
chimeric α7-GluClβR (Gallus gallus / Caenorhabditis elegans, UniProt P22770, M226I/T225I), sequence (Q17328 245-434, further chain): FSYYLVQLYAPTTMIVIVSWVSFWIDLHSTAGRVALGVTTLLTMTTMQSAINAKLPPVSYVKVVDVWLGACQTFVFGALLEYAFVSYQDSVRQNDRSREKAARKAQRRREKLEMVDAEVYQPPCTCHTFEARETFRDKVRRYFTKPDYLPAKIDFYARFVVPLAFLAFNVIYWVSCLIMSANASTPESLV

SMILES | Hill coefficient (ACh dose-response) (chimeric α7-GluClβR [1]) | current remaining at end of initial application, percent IS/IP1 (chimeric α7-GluClβR [2]; 30 μM ACh alone for 9.6 sec, N = 10) | τd1, time constant of current decline (chimeric α7-GluClβR [2]; 30 μM ACh alone, 9.6 sec, N = 10) | current remaining at end of application, percent of the peak amplitude (chimeric α7-GluClβR [2]; 350 μM ACh alone for 5.5 sec, N = 5) | time between the start of application and the onset of effect (chimeric α7-GluClβR [2]; six experiments as in Fig. 5A, 350 μM ACh, 5 μM IVM) | I+60mV/I−60mV of Glu-elicited responses (homomeric GluClβR [3]) | EC50 (homomeric GluClβR [4])
CC(=O)OCC[N+](C)(C)C [ACh, acetylcholine] | 2.55 ± 0.3 | 35 ± 4% | 4268 ± 224 ms | 31 ± 8.6% | 67 ± 7 milliseconds |  | 
N[C@@H](CCC(=O)O)C(=O)O [Glu, glutamate] |  |  |  |  |  | 2.8 ± 0.2 | 380 µM
